What was measured:
[1] = biological target: T1, KRas-mediated phosphorylation of ERK in H358 cells (Homo sapiens, UniProt P01116, G12C); assay: Inhibition of KRas-mediated phosphorylation of ERK (HTRF), H358 cells; type: cell-based; conditions: HTRF pERK, 3 h incubation
T1 construct: pERK HTRF read-out

KRas G12C = biological target: T2, KRas G12C (Homo sapiens, UniProt P01116, G12C); assay: KRas binding assay, TR-FRET displacement of Cy5 labelled tracer; conditions: 60-minute incubation at room temperature, 1% DMSO, pH 7.5
T2 construct: Biotinylated KRas (corresponding to amino acids 1-169, produced at Accelegan Inc.); biotin (biotinylated); purchased Accelegan Inc
T2 sequence (P01116 1-169 isoform P01116-2 G12C): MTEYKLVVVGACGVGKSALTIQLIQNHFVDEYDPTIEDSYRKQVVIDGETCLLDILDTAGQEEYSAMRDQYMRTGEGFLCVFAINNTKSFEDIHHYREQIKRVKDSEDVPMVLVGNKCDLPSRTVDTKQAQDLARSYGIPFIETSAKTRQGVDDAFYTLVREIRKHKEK
How it was run: (§1)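 Tb-streptavidin captured biotinylated KRas (1-169) in HEPES 50 mM, DTT 1 mM, MgCl2 5 mM, Tween-20 0.005% (pH 7.5), alongside tracer and compound at 1% final DMSO. One hour at RT, then read; IC50 from 4-parameter POC fit.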

KRas WT = biological target: T3, KRas WT (Homo sapiens, UniProt P01116); assay: as above; conditions: 60-minute incubation at room temperature, 1% DMSO, pH 7.5
T3 construct: Biotinylated KRas (corresponding to amino acids 1-169, produced at Accelegan Inc.); biotin (biotinylated); purchased Accelegan Inc
T3 sequence (P01116 1-169 isoform P01116-2): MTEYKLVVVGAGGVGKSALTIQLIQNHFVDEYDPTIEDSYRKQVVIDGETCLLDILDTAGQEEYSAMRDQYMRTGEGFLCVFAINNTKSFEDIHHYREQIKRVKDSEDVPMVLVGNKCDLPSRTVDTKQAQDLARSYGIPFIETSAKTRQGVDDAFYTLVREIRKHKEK
How it was run: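 KRas aa 1-169, biotinylated; Tb-streptavidin donor; 1% DMSO final. Buffer: HEPES 50 mM (pH 7.5), MgCl2 5 mM, DTT 1 mM, Tween-20 0.005%. 60 min, RT. IC50 from 4-parameter fit of POC.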

KRas G12S = biological target: T4, KRas G12S (Homo sapiens, UniProt P01116, G12S); assay: as above; conditions: 60-minute incubation at room temperature, 1% DMSO, pH 7.5
T4 construct: Biotinylated KRas (corresponding to amino acids 1-169, produced at Accelegan Inc.); biotin (biotinylated); purchased Accelegan Inc
T4 sequence (P01116 1-169 isoform P01116-2 G12S): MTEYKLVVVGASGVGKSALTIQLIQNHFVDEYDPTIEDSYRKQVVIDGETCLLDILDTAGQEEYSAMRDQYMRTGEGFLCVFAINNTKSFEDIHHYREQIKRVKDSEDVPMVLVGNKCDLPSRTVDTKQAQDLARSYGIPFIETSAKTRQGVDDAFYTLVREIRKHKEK
How it was run: as §1

[2] = biological target: T5, KRas-mediated phosphorylation of ERK in MKN1 cells (Homo sapiens, UniProt P01116); assay: Inhibition of KRas-mediated phosphorylation of ERK (HTRF), MKN1 cells; type: cell-based; conditions: MKN1 cells (KRas WT); HTRF pERK; 3 h incubation
T5 construct: pERK HTRF read-out
T5 sequence (P01116 1-188 isoform P01116-2): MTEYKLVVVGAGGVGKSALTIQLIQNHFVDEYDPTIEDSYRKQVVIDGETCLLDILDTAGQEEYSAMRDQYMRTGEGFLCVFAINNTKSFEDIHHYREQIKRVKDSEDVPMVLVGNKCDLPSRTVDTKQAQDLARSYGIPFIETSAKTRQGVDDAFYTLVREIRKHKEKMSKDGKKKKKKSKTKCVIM
Experimental: Inhibition of KRas Phosphorylation of ERK (HTRF) by Exemplary Compounds of Formula (Ia) or (Ib)
Cisbio HTRF Advanced pERK Assay Catalog #64AERPEH • Cells: MKN1, PSN1 • Procedure: • 1. Day 1: Seed 6,000 cells/well −25 μl/well in 384-well white solid bottom plate; RPM1_10% FBS. Incubate overnight at 37 °C/5% CO2. • 2.

[3] = biological target: T6, KRas-mediated phosphorylation of ERK in A549 cells (Homo sapiens, UniProt P01116, G12S); assay: Inhibition of KRas-mediated phosphorylation of ERK (HTRF), A549 cells; type: cell-based; conditions: HTRF pERK, 3 h incubation
T6 construct: pERK HTRF read-out
T6 sequence (P01116 1-188 isoform P01116-2 G12S): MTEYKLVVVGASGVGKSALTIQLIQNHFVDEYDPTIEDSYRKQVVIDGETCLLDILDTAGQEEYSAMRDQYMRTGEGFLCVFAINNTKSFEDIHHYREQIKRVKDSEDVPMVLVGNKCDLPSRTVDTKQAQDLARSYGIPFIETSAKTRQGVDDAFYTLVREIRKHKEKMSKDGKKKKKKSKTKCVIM

T1 sequence (P01116 1-188 isoform P01116-2 G12C): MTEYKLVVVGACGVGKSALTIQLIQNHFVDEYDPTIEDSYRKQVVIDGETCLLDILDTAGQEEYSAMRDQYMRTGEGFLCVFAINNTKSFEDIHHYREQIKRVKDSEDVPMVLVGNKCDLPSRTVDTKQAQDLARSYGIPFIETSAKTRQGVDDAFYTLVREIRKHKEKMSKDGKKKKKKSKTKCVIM

| Structure (SMILES) | IC50 [1] [nM] | IC50 (KRas G12C) [nM] | IC50 (KRas WT) [nM] | IC50 (KRas G12S) [nM] | IC50 [2] [nM] | IC50 [3] [nM] |
| --- | --- | --- | --- | --- | --- | --- |
| CC(=O)N(C)C(=O)CCCN(C)c1cc(O[C@@H](C)[C@@H]2CCCN2C)nc(-c2cc([C@]3(C)CCCc4sc(N)c(C#N)c43)sn2)n1 [Example 319, N-acetyl-4-((2-(5-((R)-2-amino-3-cyano-4-methyl-4,5,6,7-tetrahydrobenzo[b]thiophen-4-yl)isothiazol-3-yl)-6-((S)-1-((S)-1-methylpyrrolidin-2-yl)ethoxy)pyrimidin-4-yl)(methyl)amino)-N-methylbutanamide] | > 10000 | > 100000 | > 100000 | > 100000 | > 10000 | > 10000 |
| CCc1c(F)ccc2cc(O)cc(-c3ncc4c(N(C)CCN(C)C(=O)n5cncn5)nc(OC[C@@]56CCCN5C[C@H](F)C6)nc4c3F)c12 [Example 223, N-(2-((7-(8-ethyl-7-fluoro-3-hydroxynaphthalen-1-yl)-8-fluoro-2-(((2R,7aS)-2-fluorotetrahydro-1H-pyrrolizin-7a(5H)-yl)methoxy)pyrido[4,3-d]pyrimidin-4-yl)(methyl)amino)ethyl)-N-methyl-1H-1,2,4-triazole-1-carboxamide] | 17 | 42 | 164 | 53 | 569 | 2390 |
| CCc1c(F)ccc2cc(O)cc(-c3ncc4c(N5CCN(C(=O)n6nccn6)CC5)nc(OC[C@@]56CCCN5C[C@H](F)C6)nc4c3F)c12 (single isomer, unassigned) [Example 152] | 83 | 73 | 39 | 84 | 251 | 2180 |
| CCc1c(F)ccc2cc(O)cc(-c3ncc4c(N5CCCC(C(=O)n6ccc(C)n6)C5)nc(OC[C@@]56CCCN5C[C@H](F)C6)nc4c3F)c12 (stereo partly drawn) [Example 65, (1-(7-(8-ethyl-7-fluoro-3-hydroxynaphthalen-1-yl)-8-fluoro-2-(((2R,7aS)-2-fluorotetrahydro-1H-pyrrolizin-7a(5H)-yl)methoxy)pyrido[4,3-d]pyrimidin-4-yl)piperidin-3-yl)(3-methyl-1H-pyrazol-1-yl)methanone] | 415 | 28 | 17 | 14 | 266 | > 10000 |
| CN(C(=O)CCCN(C)c1nc(OC[C@@]23CCCN2C[C@H](F)C3)nc2c(F)c(-c3ccc(F)c4sc(N)c(C#N)c34)c(Cl)cc12)C(=O)c1ccn(C)n1 [Example 292, N-(4-((7-(2-amino-3-cyano-7-fluorobenzo[b]thiophen-4-yl)-6-chloro-8-fluoro-2-(((2R,7aS)-2-fluorotetrahydro-1H-pyrrolizin-7a(5H)-yl)methoxy)quinazolin-4-yl)(methyl)amino)butanoyl)-N, 1-dimethyl-1H-pyrazole-3-carboxamide] | 30 | 3 | 11 | 5 | 80 | 27 |
| CC(=O)N(C)C(=O)CCCN(C)c1nc(OC[C@@]23CCCN2C[C@H](F)C3)nc2c(F)c(-c3ccc(F)c4sc(N)c(C#N)c34)c(Cl)cc12 (atropisomer, axis not shown; (aS)) [Example 260, N-acetyl-4-(((S)-7-(2-amino-3-cyano-7-fluorobenzo[b]thiophen-4-yl)-6-chloro-8-fluoro-2-(((2R,7aS)-2-fluorotetrahydro-1H-pyrrolizin-7a(5H)-yl)methoxy)quinazolin-4-yl)(methyl)amino)-N-methylbutanamide] | 18 | < 2 | 4 | < 2 | 36 | 6 |
| CN(CCCC(=O)Oc1cccc(F)c1)c1nc(OC[C@@]23CCCN2C[C@H](F)C3)nc2c(F)c(-c3ccc(F)c4sc(N)c(C#N)c34)c(Cl)cc12 [Example 198, 3-fluorophenyl 4-((7-(2-amino-3-cyano-7-fluorobenzo[b]thiophen-4-yl)-6-chloro-8-fluoro-2-(((2R,7aS)-2-fluorotetrahydro-1H-pyrrolizin-7a(5H)-yl)methoxy)quinazolin-4-yl)(methyl)amino)butanoate] | 28 | 2 | 77 | 14 | 159 | 489 |

The remaining compounds from weak to strong by IC50 [1], led by results:

| IC50 [1] [nM] | IC50 (KRas G12C) [nM] | IC50 (KRas WT) [nM] | IC50 (KRas G12S) [nM] | IC50 [2] [nM] | IC50 [3] [nM] | Structure (SMILES) |
| --- | --- | --- | --- | --- | --- | --- |
| 295 | 3 | 12 | 5 | 250 | 388 | Cc1ccn(C(=O)CCN(C)c2nc(OC[C@@]34CCCN3C[C@H](F)C4)nc3c(F)c(-c4ccc(F)c5sc(N)c(C#N)c45)c(Cl)cc23)n1 [Example 176, 2-amino-4-(6-chloro-8-fluoro-2-(((2R,7aS)-2-fluorotetrahydro-1H-pyrrolizin-7a(5H)-yl)methoxy)-4-(methyl(3-(3-methyl-1H-pyrazol-1-yl)-3-oxopropyl)amino)quinazolin-7-yl)-7-fluorobenzo[b]thiophene-3-carbonitrile] |
| 164 | 52 | 47 | 15 | 437 | 58 | CCc1c(F)ccc2cc(O)cc(-c3ncc4c(N5CCCCC(C(=O)N(C)C(C)=O)CC5)nc(OC[C@@]56CCCN5C[C@H](F)C6)nc4c3F)c12 (stereo partly drawn) [Example 275, N-acetyl-1-(7-(8-ethyl-7-fluoro-3-hydroxynaphthalen-1-yl)-8-fluoro-2-(((2R,7aS)-2-fluorotetrahydro-1H-pyrrolizin-7a(5H)-yl)methoxy)pyrido[4,3-d]pyrimidin-4-yl)-N-methylazocane-4-carboxamide] |
| 13 | 6 | 30 | 18 | 237 | 2730 | CCc1c(F)ccc2cc(O)cc(-c3ncc4c(N(C)CCNC(=O)n5cncn5)nc(OC[C@@]56CCCN5C[C@H](F)C6)nc4c3F)c12 [Example 225, N-(2-((7-(8-ethyl-7-fluoro-3-hydroxynaphthalen-1-yl)-8-fluoro-2-(((2R,7aS)-2-fluorotetrahydro-1H-pyrrolizin-7a(5H)-yl)methoxy)pyrido[4,3-d]pyrimidin-4-yl)(methyl)amino)ethyl)-1H-1,2,4-triazole-1-carboxamide] |
| 12 | 9 | 178 | 22 | 323 | 93 | N#Cc1c(N)sc2c(F)ccc(-c3c(Cl)cc4c(N5CCC(C(=O)Oc6ccc(F)cc6)CC5)nc(OC[C@@]56CCCN5C[C@H](F)C6)nc4c3F)c12 [Example 299, 4-fluorophenyl 1-(7-(2-amino-3-cyano-7-fluorobenzo[b]thiophen-4-yl)-6-chloro-8-fluoro-2-(((2R,7aS)-2-fluorotetrahydro-1H-pyrrolizin-7a(5H)-yl)methoxy)quinazolin-4-yl)piperidine-4-carboxylate] |
| 1 | < 2 | 6 | 7 | 15 | 290 | N#Cc1c(N)sc2c(F)ccc(-c3c(Cl)cc4c(N5CCN(C(=O)n6nccn6)CC5)nc(OC[C@@]56CCCN5C[C@H](F)C6)nc4c3F)c12 [Example 191, 4-(4-(4-(2H-1,2,3-triazole-2-carbonyl)piperazin-1-yl)-6-chloro-8-fluoro-2-(((2R,7aS)-2-fluorotetrahydro-1H-pyrrolizin-7a(5H)-yl)methoxy)quinazolin-7-yl)-2-amino-7-fluorobenzo[b]thiophene-3-carbonitrile] |
